# Experimental data taken from BindingDB's records for doi:10.1016/j.bioorg.2016.04.005 (Comsats Institute of Information Technology, 2016).
# Biological target: Urease subunit alpha (Sporosarcina pasteurii, UniProt P41020)
# Experiment: Urease Inhibition Assay
# Conditions: 30 °C
# Experimental: Reaction mixtures comprising one unit of urease enzyme (B. pasteurii) solution and 55 uL of buffers containing 100 mMol urea were incubated with 5 uL of test compounds (1 mMol concentration) at 30° C for 15 min in 96-well plates. Urease activity was determined by measuring ammonia production using the indophenol'smethod. Momentarily, 45 uL each of phenol reagent and 70 uL of alkali reagent were added to each well. The increasing absorbance at 630 nm was measured after 50 min, using a micro-plate reader (Molecular Devices, USA). All reactions were performed in triplicate in a final volume of 200 uL. The results (change in absorbance per min.) were processed by using the Soft-Max Pro s4.5.Software (Molecular Devices, USA).
# Urease subunit alpha, sequence (P41020 as listed by the source): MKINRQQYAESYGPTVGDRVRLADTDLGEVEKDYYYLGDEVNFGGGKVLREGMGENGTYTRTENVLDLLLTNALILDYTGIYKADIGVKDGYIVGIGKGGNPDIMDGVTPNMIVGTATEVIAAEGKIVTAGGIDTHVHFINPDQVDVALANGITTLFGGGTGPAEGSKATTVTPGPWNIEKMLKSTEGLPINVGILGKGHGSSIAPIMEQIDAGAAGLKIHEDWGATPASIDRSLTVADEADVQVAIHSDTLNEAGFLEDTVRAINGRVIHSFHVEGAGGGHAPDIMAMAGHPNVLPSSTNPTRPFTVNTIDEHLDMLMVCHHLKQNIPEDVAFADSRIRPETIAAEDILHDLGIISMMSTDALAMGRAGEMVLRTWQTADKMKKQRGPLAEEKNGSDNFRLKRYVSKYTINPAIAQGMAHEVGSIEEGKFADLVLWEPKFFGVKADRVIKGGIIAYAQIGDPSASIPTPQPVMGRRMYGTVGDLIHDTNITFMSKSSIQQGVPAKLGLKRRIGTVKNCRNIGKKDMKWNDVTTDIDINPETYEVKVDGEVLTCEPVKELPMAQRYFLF
row,IC50 [µM],SMILES
1,69.5,O=c1oc2ccccc2c(O)c1S(=O)(=O)c1cccc2ccccc12 [3-(1-Naphthosulfonyl)-(4-hydroxycoumarin) (16)]
2,11.3,"COc1cc(C(=O)c2c(O)c3ccccc3oc2=O)cc(OC)c1OC [3-(3,4,5-Trimethoxybenzoyl)-(4-hydroxycoumarin) (9)]"
3,29.5,CS(=O)(=O)c1c(O)c2ccccc2oc1=O [3-(Methanesulfonoyl)-(4-hydroxycoumarin) (11)]
4,30.9,CCCCCCCCC(=O)c1c(O)c2ccccc2oc1=O [3-Nonanoyl-(4-hydroxycoumarin) (4)]

# Further lines, the compound ahead of its results:
row,SMILES,IC50 [µM]
1,CCCCCCCCCC(=O)c1c(O)c2ccccc2oc1=O [3-Decanoyl-(4-hydroxycoumarin) (5)],13
2,CCCCCCCCCCCC(=O)c1c(O)c2ccccc2oc1=O [3-Lauroyl-(4-hydroxycoumarin) (6)],17.1
3,NC(N)=S [thiocarbamide],21
